These results are taken from ChEMBL document CHEMBL4118135, “Optimized allosteric inhibition of engineered protein tyrosine phosphatases with an expanded palette of biarsenical small molecules” (Bioorg Med Chem, 2018).

Substitutions are numbered along the chain they refer to. Calls of active or inactive are those of the source. The calls are words filed in the database; no cut-off is given here.

Test [1] deals with T1, Tyrosine-protein phosphatase non-receptor type 1 (Homo sapiens), P18031 [P87C,A122C].
T1 sequence (whole entry): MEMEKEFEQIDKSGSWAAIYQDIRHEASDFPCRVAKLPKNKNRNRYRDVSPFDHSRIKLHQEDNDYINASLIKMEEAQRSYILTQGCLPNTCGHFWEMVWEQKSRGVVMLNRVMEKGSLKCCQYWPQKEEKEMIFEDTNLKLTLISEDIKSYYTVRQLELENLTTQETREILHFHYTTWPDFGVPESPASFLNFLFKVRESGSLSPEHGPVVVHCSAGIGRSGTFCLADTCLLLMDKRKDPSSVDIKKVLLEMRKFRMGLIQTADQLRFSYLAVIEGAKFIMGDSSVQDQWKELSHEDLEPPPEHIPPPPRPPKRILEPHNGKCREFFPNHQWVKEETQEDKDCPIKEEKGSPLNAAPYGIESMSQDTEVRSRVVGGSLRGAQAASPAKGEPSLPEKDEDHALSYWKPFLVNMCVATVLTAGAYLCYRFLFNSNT
In words: Inhibition of allosterically sensitized His6-tagged human PTP1B catalytic domain P87C/A122C mutant at 500 nM using DADEpYLIPQQG as substrate incubated for 90 mins by continuous phosphatase activity assay.

Test [2] deals with T2, Tyrosine-protein phosphatase non-receptor type 1 (Homo sapiens) (UniProt P18031).
T2 sequence (whole entry): T1 sequence (whole entry) with C87P, C122A
In words: Binding affinity to His6-tagged human wild-type PTP1B catalytic domain overexpressed in Escherichia coli crude cell lysate at 6.66 uM incubated for 90 mins by SDS-PAGE and LC-MS/MS method.

Test [3] has as its target T2, Tyrosine-protein phosphatase non-receptor type 1 (Homo sapiens). In words: Inhibition of His6-tagged human wild-type PTP1B catalytic domain at 500 nM using DADEpYLIPQQG as substrate incubated for 90 mins by continuous phosphatase activity assay.
Test [4] concerns the target Tyrosine-protein phosphatase non-receptor type 1 (Homo sapiens, UniProt P18031, A122C/P87C). In words: Inhibition of allosterically sensitized His6-tagged human PTP1B catalytic domain P87C/A122C mutant overexpressed in Escherichia coli crude cell lysate using pNPP as substrate incubated for 90 mins by quenched phosphatase activity assay.
Test [5] concerns the target T2, Tyrosine-protein phosphatase non-receptor type 1 (Homo sapiens). In words: Inhibition of His6-tagged human wild-type PTP1B catalytic domain overexpressed in Escherichia coli BL21(DE3) cells at 100 uM using pNPP as substrate incubated for 90 mins by quenched phosphatase activity assay.
The subject of test [6] is T3, Tyrosine-protein phosphatase non-receptor type 7 (Homo sapiens), P35236 [P171C,V205C].
T3 sequence (whole entry): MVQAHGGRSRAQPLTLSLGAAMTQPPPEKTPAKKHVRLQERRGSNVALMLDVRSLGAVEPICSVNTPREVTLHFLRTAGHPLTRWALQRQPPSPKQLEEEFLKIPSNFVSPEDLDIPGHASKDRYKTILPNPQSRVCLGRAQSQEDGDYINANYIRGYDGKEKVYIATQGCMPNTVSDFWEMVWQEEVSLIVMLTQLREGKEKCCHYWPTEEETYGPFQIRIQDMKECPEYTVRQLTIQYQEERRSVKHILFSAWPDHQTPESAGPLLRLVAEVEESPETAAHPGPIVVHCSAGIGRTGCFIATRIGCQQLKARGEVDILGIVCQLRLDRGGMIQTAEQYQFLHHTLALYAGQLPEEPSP
In words: Inhibition of allosterically sensitized mutant form of His6-tagged human HePTP catalytic domain at 1 uM using pNPP as substrate measured up to 10 mins by quenched phosphatase activity assay.

For test [7], the target named is T4, Tyrosine-protein phosphatase non-receptor type 7 (Homo sapiens) (UniProt P35236).
T4 sequence (whole entry): T3 sequence (whole entry) with C171P, C205V
In words: Inhibition of His6-tagged human wild-type HePTP catalytic domain overexpressed in Escherichia coli BL21(DE3) cells at 100 uM using pNPP as substrate incubated for 90 mins by quenched phosphatase activity assay.

In test [8] the target is T5, Tyrosine-protein phosphatase non-receptor type 11 (Homo sapiens) (UniProt Q06124).
T5 sequence (whole entry): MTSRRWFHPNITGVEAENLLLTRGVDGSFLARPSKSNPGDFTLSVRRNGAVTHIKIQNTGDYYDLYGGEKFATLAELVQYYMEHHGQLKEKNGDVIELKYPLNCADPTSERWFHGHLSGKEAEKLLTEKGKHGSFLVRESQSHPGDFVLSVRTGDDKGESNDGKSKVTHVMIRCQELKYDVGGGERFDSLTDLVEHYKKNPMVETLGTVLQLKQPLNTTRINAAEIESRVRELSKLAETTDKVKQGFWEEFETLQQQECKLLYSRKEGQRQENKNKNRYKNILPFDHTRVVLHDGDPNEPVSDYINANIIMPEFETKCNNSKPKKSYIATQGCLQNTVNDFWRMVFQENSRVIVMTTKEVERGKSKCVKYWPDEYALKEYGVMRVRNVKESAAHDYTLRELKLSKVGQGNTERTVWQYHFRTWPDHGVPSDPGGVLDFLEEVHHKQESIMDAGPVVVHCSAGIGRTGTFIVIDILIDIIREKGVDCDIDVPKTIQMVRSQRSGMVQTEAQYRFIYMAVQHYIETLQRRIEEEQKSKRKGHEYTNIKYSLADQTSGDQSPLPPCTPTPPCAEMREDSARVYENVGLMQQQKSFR
In words: Inhibition of allosterically sensitized mutant form of His6-tagged human SHP2 catalytic domain using pNPP as substrate after 90 mins by quenched phosphatase activity assay.

In test [9] the target is Tyrosine-protein phosphatase non-receptor type 13 (Homo sapiens) (UniProt Q12923). In words: Inhibition of allosterically sensitized mutant form of His6-tagged human FAP1 catalytic domain using pNPP as substrate after 90 mins by quenched phosphatase activity assay.
Sequence of Tyrosine-protein phosphatase non-receptor type 13 (Homo sapiens) (Q12923 whole entry, the tested form may be a part): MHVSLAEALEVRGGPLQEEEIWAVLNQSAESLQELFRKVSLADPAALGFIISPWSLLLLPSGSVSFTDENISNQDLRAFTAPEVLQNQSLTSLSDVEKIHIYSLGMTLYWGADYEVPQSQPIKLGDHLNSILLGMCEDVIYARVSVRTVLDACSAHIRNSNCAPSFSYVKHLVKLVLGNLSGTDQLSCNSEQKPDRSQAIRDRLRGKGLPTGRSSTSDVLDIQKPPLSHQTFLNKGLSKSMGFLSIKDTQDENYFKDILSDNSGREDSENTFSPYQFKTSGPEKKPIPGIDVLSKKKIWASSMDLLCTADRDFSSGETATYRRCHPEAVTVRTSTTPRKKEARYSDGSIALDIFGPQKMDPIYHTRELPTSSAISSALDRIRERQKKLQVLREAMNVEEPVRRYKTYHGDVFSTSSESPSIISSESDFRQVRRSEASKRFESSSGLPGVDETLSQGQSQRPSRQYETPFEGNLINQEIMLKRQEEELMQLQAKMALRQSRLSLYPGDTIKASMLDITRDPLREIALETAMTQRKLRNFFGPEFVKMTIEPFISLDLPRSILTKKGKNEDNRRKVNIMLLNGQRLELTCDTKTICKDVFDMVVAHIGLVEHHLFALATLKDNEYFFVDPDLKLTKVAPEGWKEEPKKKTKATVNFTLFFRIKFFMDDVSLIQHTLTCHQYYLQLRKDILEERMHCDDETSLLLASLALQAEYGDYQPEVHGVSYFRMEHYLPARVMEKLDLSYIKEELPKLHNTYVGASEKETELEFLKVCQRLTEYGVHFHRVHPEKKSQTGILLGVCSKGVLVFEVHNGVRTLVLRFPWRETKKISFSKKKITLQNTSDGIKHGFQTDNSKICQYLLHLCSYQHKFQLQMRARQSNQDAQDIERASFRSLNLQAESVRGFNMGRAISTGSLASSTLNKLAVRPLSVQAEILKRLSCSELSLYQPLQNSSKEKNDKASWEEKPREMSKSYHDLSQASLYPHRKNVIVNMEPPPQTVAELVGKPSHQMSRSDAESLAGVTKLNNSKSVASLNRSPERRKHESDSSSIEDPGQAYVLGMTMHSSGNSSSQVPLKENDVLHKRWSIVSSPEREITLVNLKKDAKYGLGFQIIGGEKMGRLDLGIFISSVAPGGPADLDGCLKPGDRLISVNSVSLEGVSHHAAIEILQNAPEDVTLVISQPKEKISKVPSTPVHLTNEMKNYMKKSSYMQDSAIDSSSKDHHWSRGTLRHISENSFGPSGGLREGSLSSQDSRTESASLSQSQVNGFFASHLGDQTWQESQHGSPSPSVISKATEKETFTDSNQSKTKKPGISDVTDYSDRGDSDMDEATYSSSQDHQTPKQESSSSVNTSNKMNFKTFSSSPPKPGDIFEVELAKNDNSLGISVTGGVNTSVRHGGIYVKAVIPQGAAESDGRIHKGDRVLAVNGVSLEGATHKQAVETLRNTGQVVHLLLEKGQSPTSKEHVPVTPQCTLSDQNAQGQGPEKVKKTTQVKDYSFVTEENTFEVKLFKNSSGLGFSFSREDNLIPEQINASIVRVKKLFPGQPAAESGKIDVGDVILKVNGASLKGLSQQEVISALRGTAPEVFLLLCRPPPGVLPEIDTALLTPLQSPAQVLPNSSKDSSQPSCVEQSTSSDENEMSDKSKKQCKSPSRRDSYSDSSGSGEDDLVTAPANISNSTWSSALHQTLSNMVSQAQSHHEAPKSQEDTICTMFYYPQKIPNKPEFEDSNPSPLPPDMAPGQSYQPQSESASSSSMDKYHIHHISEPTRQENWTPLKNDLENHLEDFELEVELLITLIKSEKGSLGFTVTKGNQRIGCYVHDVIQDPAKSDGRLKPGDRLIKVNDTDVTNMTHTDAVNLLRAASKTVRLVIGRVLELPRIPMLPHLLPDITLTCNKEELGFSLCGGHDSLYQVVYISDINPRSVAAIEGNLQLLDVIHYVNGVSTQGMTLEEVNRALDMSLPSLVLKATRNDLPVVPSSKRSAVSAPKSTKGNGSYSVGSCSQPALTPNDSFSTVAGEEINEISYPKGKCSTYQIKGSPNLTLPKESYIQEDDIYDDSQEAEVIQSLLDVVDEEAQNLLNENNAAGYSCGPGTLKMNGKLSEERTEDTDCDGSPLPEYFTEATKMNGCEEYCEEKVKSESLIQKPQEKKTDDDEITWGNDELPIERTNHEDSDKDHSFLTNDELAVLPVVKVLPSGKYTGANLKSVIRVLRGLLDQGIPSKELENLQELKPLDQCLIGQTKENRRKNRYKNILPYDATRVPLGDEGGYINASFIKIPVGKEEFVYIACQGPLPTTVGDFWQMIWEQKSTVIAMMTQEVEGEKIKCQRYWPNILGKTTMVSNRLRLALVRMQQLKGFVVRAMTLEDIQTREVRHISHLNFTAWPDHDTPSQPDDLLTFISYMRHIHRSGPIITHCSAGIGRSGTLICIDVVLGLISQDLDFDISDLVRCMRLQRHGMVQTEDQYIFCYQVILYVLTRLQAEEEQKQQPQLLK

For the compound `CC1(C)C(/C=C/C=C2/N(CCCCS(=O)(=O)O)c3ccc([As]4SCCS4)cc3C2(C)C)=[N+](CCCCS(=O)(=O)O)c2ccc([As]3SCCS3)cc21`, in test [1], the inhibition entry is “Active”. The outcome in test [2] was inactive. The inhibition result in test [3] and in [5] was “inactive” each time. Besides, the IC50 in test [4] was 0.125 µM.
With `O=C(O)c1ccccc1-c1c2ccc(=O)c([As]3SCCS3)c-2oc2c([As]3SCCS3)c(O)ccc12`, the inhibition in test [6] is 50%; in test [8], “Dose-dependent effect”; in test [9] it was “Dose-dependent effect”. The inhibition entry in test [7] is “inactive”.
